Results published in PubChem BioAssay AID1918946 (Molecular Pharmacology Branch, DTP, NCI, 2023).
pIC50: −log10 of the molar value.

System: 885512-296-R-J2-PDC complex spheroid viability
Assay: Anticancer human tumor 885512-296-R-J2-PDC patient-derived breast carcinoma cell line growth inhibition
Conditions: for pIC50: curve of first compound; for viability, T/C: stronger effect = lower value
Excerpt: Multicellular complex tumor spheroid response to LSD1 Inhibitor Iadademstat in combination with a variety of drugs and investigational agents in selected tumor cell lines
The current study was undertaken to assess response to LSD1 inhibitors in combination with standard-of-care drugs and investigational agents in solid tumor complex spheroid models as well as in the K-562 leukemia. Complex spheroids include a stromal component modeled by human endothelial cells (HUVEC) and fibroblasts modeled by human mesenchymal stem cells (MSCs). The concentration ranges selected for each drug and investigational agent were based upon clinically achievable concentrations if the clinical Cmax of the agent was known.
Compounds. The drugs and investigational agents used in this study are listed on Table 1. All of the agents used, including staurosporine (NSC755774) and gemcitabine (NSC613327), were obtained from the Developmental Therapeutics Program, NCI. FDA-approved anticancer drugs are available from the NCI at http://dtp.nci.nih.gov/branches/dscb/oncology_drugset_explanation.html. Drugs and investigational agents were >95% pure by proton nuclear magnetic resonance (NMR) and liquid chromatography/mass spectrometry (LC/MS). Stock solutions were prepared at 400x in DMSO, stored at -70 degrees C, and diluted in fresh medium prior to their use. The final concentration of DMSO in cell culture wells never exceeded 0.25% (v/v). The FDA-approved anticancer drug set is available from the Developmental Therapeutics Program at https://dtp.cancer.gov/organization/dscb/obtaining/available_plates.htm. All drugs and investigational agents were tested over a range starting from a high concentration at or near the clinical Cmax and decreasing in half-log increments. If the clinical Cmax for an agent had not been determined, the highest concentration tested was 10 microM.
Cell Lines. The patient-derived cancer cell (PDC) lines: 292921-168-R-J2-PDC, K24384-001-R-PDC, and 521955-158-R2-J5-PDC pancreatic carcinomas, 556581-035-R-J1 ovarian carcinoma, 324938-238-R-J1-PDC, 855422-203-R-J1-PDC and 883617-216-R-J1-PDC urothelial bladder carcinomas, 743489-274-T-PDC renal cell carcinoma, 138582-R-J1 Merkel cell tumor, K60290-347-R-J1 and K57222-313-R-J1-PDC glioblastomas, 653999-131-R-J2-PDC, LG0703-F948-PDC, and 349418-098-R-PDC non-small cell lung carcinomas, 885512-296-R-J2-PDC, 171881-019-R-J1-PDC breast carcinomas and 186277-243-T-J2-PDC and 233499-124-R-J2-PDC colon carcinomas were obtained from the NCI Patient-Derived Models Repository (PDMR, https://pdmr.cancer.gov). The established cell lines NCI/ADR-RES (RRID:CVCL_14520 and OVCAR-5 (RRID:CVCL_1628) ovarian carcinomas, 786-O (RRID:CVCL_1051) and A498 (RRID:CVCL_A498) renal cell carcinoma, NCI-H211 (ATCC, cat. CRL-5824; RRID:CVCL_1529), NCI-H196 (ATCC, cat. CRL-5823, RRID:CVCL_1509), SW 1271 (ATCC, cat. CRL-2177, RRID:CVCL_1716) and NCI-H1876 (ATCC, cat. CRL-5902, RRID:CVCL_1503) small cell lung carcinomas, MDA-MB-231 (RRID:CVCL_0062) and MDA-MB-468 (RRID:CVCL_0419)breast carcinomas (10-12). Pooled donor human umbilical vein endothelial cells (HUVEC, Lonza, cat. CC-2519) and human mesenchymal stem cells (hMSC, Lonza, cat. PT-2501) were purchased from Lonza (Walkersville, MD).
Cell Culture. All cells were maintained in an incubator at 37 degrees C and 5% CO2 with 95% humidity. The PDC lines were cultured according to standard operating procedures established by the NCI PDMR (https://pdmr.cancer.gov). Briefly all PDCs were thawed and cultured in Matrigel-coated flasks prepared with a working solution of 1X Ham's F-12 nutrient mix, without supplementation (Invitrogen, Waltham, MA, cat. 11765054), 100 U/mL penicillin-streptomycin (Invitrogen, cat. 15140122), and 2.5% Matrigel (Corning Inc., Corning, NY, cat. 354248) for the first three passages. […]
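Note: spheroids exposed to agents for 7 days before viability read.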

For `Nc1ccn(C2OC(CO)C(O)C2(F)F)c(=O)n1` (stereo not given) + NC1CC1c1ccc(-c2cccc(O)c2)cc1, the pIC50 (second compound 0.1 µM) was > 9.02, the pIC50 (second compound 0.316 µM) was > 9.02 and the pIC50 (second compound 1 µM) was > 9.02. The pIC50 (second compound 3.16 µM) was > 9.02, the pIC50 (second compound 10 µM) was > 9.02 and the viability, T/C (second compound 0.1 µM, first compound 0.000949 µM) was 13.8%. The viability, T/C (second compound 0.1 µM, first compound 0.003 µM) was 2.18%, the viability, T/C (second compound 0.1 µM, first compound 0.00949 µM) was 2% and the viability, T/C (second compound 0.1 µM, first compound 0.03 µM) was 2.39%. The viability, T/C (second compound 0.1 µM, first compound 0.0949 µM) was 2.84%, the viability, T/C (second compound 0.1 µM, first compound 0.3 µM) was 2.16% and the viability, T/C (second compound 0.316 µM, first compound 0.000949 µM) was 17.7%. The viability, T/C (second compound 0.316 µM, first compound 0.003 µM) was 2.09%, the viability, T/C (second compound 0.316 µM, first compound 0.00949 µM) was 1.82% and the viability, T/C (second compound 0.316 µM, first compound 0.03 µM) was 2.16%. For the same compound, the viability, T/C (second compound 0.316 µM, first compound 0.0949 µM) was 2.14%, the viability, T/C (second compound 0.316 µM, first compound 0.3 µM) was 2.23% and the viability, T/C (second compound 1 µM, first compound 0.000949 µM) was 12.1%. The viability, T/C (second compound 1 µM, first compound 0.003 µM) was 2.01%, the viability, T/C (second compound 1 µM, first compound 0.00949 µM) was 2.01% and the viability, T/C (second compound 1 µM, first compound 0.03 µM) was 2.18%. For the same compound, the viability, T/C (second compound 1 µM, first compound 0.0949 µM) was 2.05%, the viability, T/C (second compound 1 µM, first compound 0.3 µM) was 2.5% and the viability, T/C (second compound 3.16 µM, first compound 0.000949 µM) was 15.3%. The viability, T/C (second compound 3.16 µM, first compound 0.003 µM) was 2.08%, the viability, T/C (second compound 3.16 µM, first compound 0.00949 µM) was 2.46% and the viability, T/C (second compound 3.16 µM, first compound 0.03 µM) was 1.83%. For the same compound, the viability, T/C (second compound 3.16 µM, first compound 0.0949 µM) was 2.59%, the viability, T/C (second compound 3.16 µM, first compound 0.3 µM) was 2.46% and the viability, T/C (second compound 10 µM, first compound 0.000949 µM) was 15.8%. It also gave a viability, T/C (second compound 10 µM, first compound 0.003 µM) of 2.15%, a viability, T/C (second compound 10 µM, first compound 0.00949 µM) of 2.26% and a viability, T/C (second compound 10 µM, first compound 0.03 µM) of 2.65%. It also gave a viability, T/C (second compound 10 µM, first compound 0.0949 µM) of 2.46% and a viability, T/C (second compound 10 µM, first compound 0.3 µM) of 3.06%.
In the case of `O=C(c1cc(Cc2n[nH]c(=O)c3ccccc23)ccc1F)N1CCN(C(=O)C2CC2)CC1` + NC1CC1c1ccc(-c2cccc(O)c2)cc1, the pIC50 (second compound 0.1 µM) was 6.02, the pIC50 (second compound 0.316 µM) was 6.05 and the pIC50 (second compound 1 µM) was 6.09. For the same compound, the pIC50 (second compound 3.16 µM) was 6.18, the pIC50 (second compound 10 µM) was 6.44 and the viability, T/C (second compound 0.1 µM, first compound 0.0316 µM) was 116%. It also gave a viability, T/C (second compound 0.1 µM, first compound 0.1 µM) of 106%, a viability, T/C (second compound 0.1 µM, first compound 0.316 µM) of 90.9% and a viability, T/C (second compound 0.1 µM, first compound 1 µM) of 48.6%. It also gave a viability, T/C (second compound 0.1 µM, first compound 3.16 µM) of 13.1%, a viability, T/C (second compound 0.1 µM, first compound 10 µM) of 4.93% and a viability, T/C (second compound 0.316 µM, first compound 0.0316 µM) of 103%. It also gave a viability, T/C (second compound 0.316 µM, first compound 0.1 µM) of 114%, a viability, T/C (second compound 0.316 µM, first compound 0.316 µM) of 76.6% and a viability, T/C (second compound 0.316 µM, first compound 1 µM) of 51.7%. For the same compound, the viability, T/C (second compound 0.316 µM, first compound 3.16 µM) was 10.8%, the viability, T/C (second compound 0.316 µM, first compound 10 µM) was 5.15% and the viability, T/C (second compound 1 µM, first compound 0.0316 µM) was 96.9%. For the same compound, the viability, T/C (second compound 1 µM, first compound 0.1 µM) was 105%, the viability, T/C (second compound 1 µM, first compound 0.316 µM) was 88.7% and the viability, T/C (second compound 1 µM, first compound 1 µM) was 40.4%. It also gave a viability, T/C (second compound 1 µM, first compound 3.16 µM) of 13.3%, a viability, T/C (second compound 1 µM, first compound 10 µM) of 4.98% and a viability, T/C (second compound 3.16 µM, first compound 0.0316 µM) of 111%. For the same compound, the viability, T/C (second compound 3.16 µM, first compound 0.1 µM) was 80.8%, the viability, T/C (second compound 3.16 µM, first compound 0.316 µM) was 75.9% and the viability, T/C (second compound 3.16 µM, first compound 1 µM) was 41.1%. The viability, T/C (second compound 3.16 µM, first compound 3.16 µM) was 9.4%, the viability, T/C (second compound 3.16 µM, first compound 10 µM) was 4.81% and the viability, T/C (second compound 10 µM, first compound 0.0316 µM) was 80.1%. It also gave a viability, T/C (second compound 10 µM, first compound 0.1 µM) of 70%, a viability, T/C (second compound 10 µM, first compound 0.316 µM) of 55.1% and a viability, T/C (second compound 10 µM, first compound 1 µM) of 22.2%. For the same compound, the viability, T/C (second compound 10 µM, first compound 3.16 µM) was 6.21% and the viability, T/C (second compound 10 µM, first compound 10 µM) was 4.07%.
